{
  "source": "patent US20250188123A1",
  "about": "“PROTEASE INHIBITORS” (Regents of the University of Minnesota, priority 2022, published 2025)",
  "biological_target": "T1, recombinant human caspase-2 (cleavage of tau at D314) (Homo sapiens, UniProt P42575)",
  "T1 construct": "human caspase-2 p19 and p12 subunits were cloned as two separate open reading frames in the pCOLADuet-1 vector; made in house; host or cells: E. coli BL21(DE3)",
  "T1 sequence (P42575 170-325 limits assumed)": "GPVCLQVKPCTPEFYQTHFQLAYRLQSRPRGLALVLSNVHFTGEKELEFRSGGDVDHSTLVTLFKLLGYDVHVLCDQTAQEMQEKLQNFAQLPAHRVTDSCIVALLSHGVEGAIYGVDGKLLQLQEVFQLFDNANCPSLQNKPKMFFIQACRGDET",
  "T1 sequence (P42575 348-452 limits assumed)": "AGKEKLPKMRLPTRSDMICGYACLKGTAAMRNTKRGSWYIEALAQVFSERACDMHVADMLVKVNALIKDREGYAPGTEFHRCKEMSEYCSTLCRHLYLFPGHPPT",
  "assay": "In vitro caspase-2-catalyzed tau cleavage assay (Δtau314 production, IP/WB)",
  "assay_type": "biochemical",
  "conditions": "for inhibition at 10 µM: read-out: inhibition of Casp2-catalyzed Δtau314 production (tau cleavage at D314)",
  "method": "DNA sequences encoding human caspase-2 p19 and p12 subunits were cloned as two separate open reading frames in the pCOLADuet-1 vector (Millipore Sigma, Burlington, MA). The DNA sequence encoding human microtubule-associated protein tau 0N4R isoform was cloned in the pET28a vector (Millipore Sigma). Expression of recombinant human caspase-2 and tau was induced using 150 μM isopropyl-β-D-thiogalactopyranoside (IPTG) (Promega, Madison, WI) in the BL21(DE3) E. coli strain (Millipore Sigma) at room temperature for 16 hours while shaking at 250 rpm. Cells were then harvested via centrifugation at 6,000 g, 4° C. for 15 minutes, followed by lysis via sonication. Proteins were purified using HisPur Ni-NTA resin (Thermo Fisher Scientific, Waltham, MA) followed by HiTrap Chelating HP columns (GE Healthcare Life Sciences, Piscataway, NJ). Proteins were stored in 1× phosphate-buffered saline (pH 7.4) at 10 mg/mL (determined using a BCA assay (Thermo Fisher Scientific)), −80° C. until further use.\nPurified recombinant Casp2 (final concentration during pre-incubation: 67 μM) was pre-incubated with various concentrations of inhibitory compounds at 4° C. for 72 h. Pre-treated enzyme was then incubated with purified recombinant tau at a molar ratio of 1:1 in 37° C. water bath, 1× reaction buffer (25 mM 4-(2-hydroxyethyl)-1-piperazineethanesulfonic acid (HEPES), 0.1% (w/v) 3-[(3-cholamidopropyl)dimethylammonio]-1-propanesulfonate (CHAPS), 10 mM dithiothreitol (DTT), pH 7.5) for 7 h. The final volume of each reaction was 100 μL. At the end of the 7-h incubation, 0.1% (v/v) protease inhibitor cocktail (Millipore Sigma) was added to stop the reactions.\nImmediately after the reaction was stopped, the 100 μL enzyme-product mixture was diluted in 400 μL IP buffer (50 mM Tris-HCl (pH 7.4) and 150 mM NaCl, containing 0.1 mM phenylmethylsulfonyl fluoride, 0.2 mM 1,10-phenanthroline monohydrate, and protease inhibitor cocktail (Millipore Sigma)), and then incubated with 10 μg of Δtau314-specific monoclonal antibody 4F3 and 50 μL of Protein G Sepharose 4 Fast Flow resin (GE Healthcare) at 4° C. for 14-16 h. Subsequent resin wash and protein elution were performed as described previously (Liu P, et al., Scientific Reportsm 2020, 10, 3869). WB was performed according to a previously published protocol (Liu P, et al., Acta Neuropathologica Communications, 2019; 7, 111).",
  "note": "“Also recorded” adds a separate entry of the source. Read-outs that look alike come from different tables or passages of the source.",
  "data": [
    {"smiles": "CC(=O)N[C@H](C(=O)NC(CC(=O)O)C(=O)N[C@H](C(=O)N1CCc2cc(C)ccc2C1C(=O)N[C@H](C=O)CC(=O)O)C(C)C)C(C)C", "note": "(stereo in doubt) [Compound 30a, (R)-3-((S)-2-acetamido-3-methylbutanamido)-4-(((S)-1-((S)-1-(((S)-1-carboxy-3-oxopropan-2-yl)carbamoyl)-6-methyl-3,4-dihydroisoquinolin-2(1H)-yl)-3-methyl-1-oxobutan-2-yl)amino)-4-oxobutanoic acid, reference compound]", "values": [
      {"measurement": "inhibition of Casp2-catalyzed Δtau314 production (tau cleavage at D314)", "setting": "compound at 10 μM, no-compound control = 100% Δtau314, 10 µM", "value": "no inhibition; also recorded: did not inhibit"}
    ]},
    {"smiles": "Cc1ccc2c(c1)CCN(C(=O)[C@@H](NC(=O)[C@H](CCCC(=O)O)NC(=O)C1Cc3ccccc3N1)C(C)C)[C@@H]2C(=O)N[C@H](C#N)CC(=O)O", "note": "(stereo partly drawn) [Compound 1, (8)-6-(((S)-1-((8)-1-(((S)-2-carboxy-1-cyanoethyl)carbamoyl)-6-methyl-3,4-dihydroisoquinolin-2(1H)-yl)-3-methyl-1-oxobutan-2-yl)amino)-5-((S)-indoline-2-carboxamido)-6-oxohexanoic acid]", "values": [
      {"measurement": "IC50", "value": "2020 ± 190", "unit": "nM"},
      {"measurement": "inhibition at 10 µM", "value": 96, "unit": "%"}
    ]},
    {"smiles": "CC(=O)N[C@H](C(=O)N[C@@H](CC(=O)O)C(=O)N[C@H](C(=O)N1CCc2cc(C)ccc2[C@H]1C(=O)N[C@H](C=O)CC(=O)O)C(C)C)C(C)C", "note": "[Compound 30b, (S)-3-((S)-2-acetamido-3-methylbutanamido)-4-(((S)-1-((S)-1-(((S)-1-carboxy-3-oxopropan-2-yl)carbamoyl)-6-methyl-3,4-dihydroisoquinolin-2(1H)-yl)-3-methyl-1-oxobutan-2-yl)amino)-4-oxobutanoic acid, reference compound]", "values": [
      {"measurement": "inhibition at 10 µM", "setting": "compound at 10 μM, no-compound control = 100% Δtau314", "value": 68, "unit": "%"}
    ]}
  ]
}
